Reference: patent US11466044B2 (WAYNE STATE UNIVERSITY, priority 2017, dated 2022)
≈ marks a conversion by molar mass, not a printed value. Read-outs that look alike come from different tables or passages of the source.

Legend:
[1] = test system: Klebsiella pneumonia AG215; test: MIC by broth microdilution, Klebsiella pneumonia; assay type: cell-based; settings: strain AG215 Klebsiella pneumonia
[2] = test system: N. gonorrhoeae; test: Disk diffusion, N. gonorrhoeae; assay type: cell-based
[3] = test system: Enterobacter cloacae AG290; test: MIC by broth microdilution, Enterobacter cloacae; assay type: cell-based; settings: strain AG290 Enterobacter cloacae
[4] = test system: Acinetobacter baumannii pittii AG225; test: MIC by broth microdilution, Acinetobacter baumannii; assay type: cell-based; settings: strain AG225 Acinetobacter baumannii pittii
[5] = test system: E coli carrying specific resistance determinants; test: MIC by broth microdilution, E coli carrying specific resistance determinants; assay type: cell-based; settings: for MIC50 / MIC: Escherichia coli
[6] = test system: E coli wild type; test: MIC by broth microdilution, wild type E coli; assay type: cell-based; settings: for MIC50 E coli BM13 (AG06) wt: Table 2A (Example 2); for MIC50 E coli pH430 WT: Table 2B (Example 2); for MIC50 E coli AG01: strain AG01; for MIC50 E coli AG01 / MIC50 E coli AG03 / MIC50 E coli AG55: Table 1 (Example 2); for MIC50 E coli AG03: strain AG03; for MIC50 E coli AG55: strain AG55
[7] = test system: P aeruginosa; test: MIC by broth microdilution, P aeruginosa isolates; assay type: cell-based, Pseudomonas aeruginosa
[8] = test system: MRSA; test: MIC by broth microdilution, MRSA isolates; assay type: cell-based; settings: Table 1 (Example 2); for MIC50 MRSA AG38: strain AG38; for MIC50 MRSA AG39: strain AG39; for MIC50 MRSA AG42: strain AG42; for MIC50 MRSA AG44: strain AG44
[9] = test system: M. smegmatis SZ380; test: MIC by broth microdilution, M. smegmatis; settings: strain SZ380 Mycobacterium smegmatis
[10] = test system: wild type bacterial ribosomes; test: in-vitro translation assay, bacterial ribosomes; assay type: biochemical; settings: bacterial ribosome; Table 3 (Example 2); read-out: IC50 Bac
Text: (§1) The antiribosomal activity of these compounds was investigated with cell-free translation assays using both wild type bacterial ribosomes and hybrid ribosomes carrying eukaryotic decoding A sites enabling the prediction of selectivity.

[11] = test system: cytosolic ribosome (human chimeric); assay type: biochemical; settings: cytosolic; Table 3 (Example 2); read-out: IC50 Cyt
Text: as §1

[12] = test system: mitochondrial ribosome (human chimeric); assay type: biochemical; settings: mitochondrial; Table 3 (Example 2); read-out: IC50 Mit
Text: as §1

C[C@@H](O)[C@H]1O[C@H](O[C@H]2[C@H](O[C@@H]3O[C@H](CO)[C@@H](O[C@H]4O[C@@H](CN)[C@@H](O)[C@H](O)[C@H]4N)[C@H]3O)[C@@H](O)[C@H](N)C[C@@H]2N)[C@H](N)[C@@H](O)[C@@H]1O [Compound 155, 6′(R)-6′-C-Methylparomomycin]
MIC AG215 K. pneumon [1]: 2 µg/mL (≈ 3.18 µM)
Disk diffusion 25 nmol N. gonorrhoeae ([2]; 25 nmol): 8 mm
MIC AG290 E. cloacae [3]: 2 to 4 µg/mL
MIC AG225 A. baumannii [4]: 4 µg/mL (≈ 6.35 µM)
MIC50 E coli AG036 ANT(4′,4″) ([5]; AG036 ANT(4′,4″), Table 2B (Example 2)): >32 µg/mL
MIC50 E coli AG037 APH(3′)-III ([5]; AG037 APH(3′)-III, Table 2B (Example 2)): >32 µg/mL
MIC50 E coli AG103 armA ([5]; AG103 armA, Table 2B (Example 2)): 8 µg/mL (≈ 12.7 µM)
MIC50 E coli pH414 AAC(6′)-I ([5]; pH414 AAC(6′)-I, Table 2B (Example 2)): 2 μg/ml
MIC50 E coli pH415 AAC(6′)-II ([5]; pH415 AAC(6′)-II, Table 2B (Example 2)): 2 μg/ml
MIC50 E coli pH421 APH(3′)-I ([5]; pH421 APH(3′)-I, Table 2B (Example 2)): >32 μg/ml
MIC50 E coli pH422 APH(3′)-II ([5]; pH422 APH(3′)-II, Table 2B (Example 2)): >32 μg/ml
MIC50 E coli pH423 APH(3)-VI ([5]; pH423 APH(3)-VI, Table 2B (Example 2)): >32 μg/ml
MIC50 E coli pH432 ANT(4′) ([5]; pH432 ANT(4′), Table 2B (Example 2)): 2 μg/ml
MIC50 E coli BM13 (AG06) wt [6]: 2 µg/mL (≈ 3.18 µM)
MIC50 E coli pH430 WT [6]: 1-2 μg/ml
MIC50 E coli AG01 [6]: 8 to 16 µg/mL
MIC50 E coli AG03 [6]: 8 to 16 µg/mL
MIC50 E coli AG55 [6]: 8 to 16 µg/mL
MIC AG212 E. coli ([6]; strain AG212 E. coli (ATCC25922)): 4 µg/mL (≈ 6.35 µM)
MIC AG220 P. aerugin ([7]; strain AG220 Pseudomonas aeruginosa ATCC27853): >32 µg/mL
MIC50 MRSA AG38 [8]: 8 µg/mL (≈ 12.7 µM)
MIC50 MRSA AG39 [8]: >64 µg/mL
MIC50 MRSA AG42 [8]: >64 µg/mL
MIC50 MRSA AG44 [8]: 4 µg/mL (≈ 6.35 µM)
MIC SZ380 M. smegmatis [9]: 4 µg/mL (≈ 6.35 µM)

CC1CC(O)C2O[C@H](O[C@@H]3C(N)C[C@@H](N)C(O)[C@H]3O[C@@H]3O[C@H](CO)[C@H](O[C@H]4O[C@@H](CN)[C@@H](O)C(O)C4N)C3O)C(N)[C@@H](O)[C@@H]2O1 (stereo partly drawn) [Compound 125, 4-O-(2′-Amino-4′,8′-anhydro-2′,7′,9′-trideoxy-D-threo-α-D-gluco-nonapyranosyl)-5-O-[3-O-(2,6-diamino-2,6-dideoxy-β-L-idopyranosyl)-β-D-ribofuranosyl]-2-deoxystreptamine.5AcOH]
MIC ([1]; Klebsiella pneumoniae, read-out: MIC AG215 K. pneumon): 2 µg/mL (≈ 3.05 µM)
zone of inhibition at 25 nmol/disc ([2]; Neisseria gonorrhoeae): 9 mm
IC50 [10]: 0.04 µM
MIC ([3]; read-out: MIC AG290 E. cloacae): 2 µg/mL (≈ 3.05 µM)
MIC [4]: 4 µg/mL (≈ 6.1 µM)
IC50 [11]: 30 µM
IC50 [12]: 312 µM
MIC50 ([5]; read-out: MIC50 E coli AG07 AAC(3), AG07 AAC(3), Table 2A (Example 2)): 8 µg/mL (≈ 12.2 µM)
MIC50 ([5]; read-out: MIC50 E coli AG09 AAC(6′), AG09 AAC(6′), Table 2A (Example 2)): 4 µg/mL (≈ 6.1 µM)
MIC50 ([5]; read-out: MIC50 E coli AG036 ANT(4′,4″), AG036 ANT(4′,4″), Table 2A (Example 2)): 2 to 4 µg/mL (≈ 3.05 to 6.1 µM)
MIC50 ([5]; read-out: MIC50 E coli AG036 ANT(4′,4″), AG036 ANT(4′,4″), Table 2B (Example 2)): 0.5 µg/mL (≈ 0.763 µM)
MIC50 ([5]; read-out: MIC50 E coli AG037 APH(3′)-III, AG037 APH(3′)-III, Table 2B (Example 2)): 16 µg/mL (≈ 24.4 µM)
MIC50 ([5]; read-out: MIC50 E coli AG037 APH(3′,5″), AG037 APH(3′,5″), Table 2A (Example 2)): 32 to 64 µg/mL (≈ 48.8 to 97.6 µM)
MIC50 ([5]; read-out: MIC50 E coli AG103 ArmA, AG103 ArmA, Table 2A (Example 2)): 4 µg/mL (≈ 6.1 µM)
MIC50 ([5]; read-out: MIC50 E coli AG103 armA, AG103 armA, Table 2B (Example 2)): 1 to 2 µg/mL (≈ 1.53 to 3.05 µM)
MIC50 ([5]; read-out: MIC50 E coli AG105 AAC(2′), AG105 AAC(2′), Table 2A (Example 2)): 2 to 4 µg/mL (≈ 3.05 to 6.1 µM)
MIC50 ([5]; read-out: MIC50 E coli pH414 AAC(6′)-I, pH414 AAC(6′)-I, Table 2B (Example 2)): 1 µg/mL (≈ 1.53 µM)
MIC50 ([5]; read-out: MIC50 E coli pH415 AAC(6′)-II, pH415 AAC(6′)-II, Table 2B (Example 2)): 1 to 2 µg/mL (≈ 1.53 to 3.05 µM)
MIC50 ([5]; read-out: MIC50 E coli pH421 APH(3′)-I, pH421 APH(3′)-I, Table 2B (Example 2)): > 32 µg/mL
MIC50 ([5]; read-out: MIC50 E coli pH422 APH(3′)-II, pH422 APH(3′)-II, Table 2B (Example 2)): 4 µg/mL (≈ 6.1 µM)
MIC50 ([5]; read-out: MIC50 E coli pH423 APH(3)-VI, pH423 APH(3)-VI, Table 2B (Example 2)): 2 µg/mL (≈ 3.05 µM)
MIC50 ([5]; read-out: MIC50 E coli pH432 ANT(4′), pH432 ANT(4′), Table 2B (Example 2)): 1 to 2 µg/mL (≈ 1.53 to 3.05 µM)
MIC ([5]; read-out: MIC AAC(6′)): 1 to 2 µg/mL (≈ 1.53 to 3.05 µM)
MIC ([5]; read-out: MIC ANT(4′)): 0.5 µg/mL (≈ 0.763 µM)
MIC ([5]; read-out: MIC APH(3′)-II): 4 µg/mL (≈ 6.1 µM)
MIC ([5]; read-out: MIC APH(3′)-VI): 2 µg/mL (≈ 3.05 µM)
MIC50 E coli BM13 (AG06) wt [6]: 2 µg/mL (≈ 3.05 µM)
MIC ([6]; Escherichia coli, ATCC25922, strain AG212 E. coli (ATCC25922), read-out: MIC AG212 E. coli): 2 µg/mL (≈ 3.05 µM)
MIC WT ([6]; WT, Table 3 (Example 2)): 1 to 2 µg/mL
MIC50 E coli pH430 WT [6]: 1-2 μg/ml
MIC50 E coli AG01 [6]: 8 µg/mL (≈ 12.2 µM)
MIC50 E coli AG03 [6]: 8 µg/mL (≈ 12.2 µM)
MIC50 E coli AG55 [6]: 8 µg/mL (≈ 12.2 µM)
MIC50 P aeruginosa AG31 ([7]; strain AG31, Table 1 (Example 2)): 32 µg/mL (≈ 48.8 µM)
MIC50 P aeruginosa AG32 ([7]; strain AG32, Table 1 (Example 2)): 16 to 32 µg/mL
MIC50 P aeruginosa AG33 ([7]; strain AG33, Table 1 (Example 2)): >128 µg/mL
MIC50 P aeruginosa AG86 ([7]; strain AG86, Table 1 (Example 2)): >128 µg/mL
MIC ([7]; strain AG220 Pseudomonas aeruginosa ATCC27853, read-out: MIC AG220 P. aerugin): 8 µg/mL (≈ 12.2 µM)
MIC50 MRSA AG38 [8]: 8 to 16 µg/mL
MIC50 MRSA AG39 [8]: 8 µg/mL (≈ 12.2 µM)
MIC50 MRSA AG42 [8]: 8 µg/mL (≈ 12.2 µM)
MIC50 MRSA AG44 [8]: 4 µg/mL (≈ 6.1 µM)
MIC SZ380 M. smegmatis [9]: 0.5 µg/mL (≈ 0.763 µM)
